Data reported in patent publication US6552011B1, “(Androst-5-en-17beta -yl)alkyl sulfoxides and sulfones and their use for control of fertility” (Akzo Nobel NV, priority 1999, dated 2003).

Columns and labels:
Assay type in all cases: cell-based, mice (B6D2-F1, strain C57BL×DBA)
[1] = system: denuded oocytes (DO); assay: Oocyte assay, antagonistic testing, DO assay (inhibition of FF-Mas induced oocyte maturation); conditions: FF-Mas 5 μM, compound 5 μM, hypoxanthine 4 mM medium, 22 hours culture, number in brackets = control (FF-Mas alone)
Protocol: (§1) The meiosis inhibiting activity of the (androst-5-en-17β-yl)alkyl sulfoxides and sulfones of the invention is measured in an in vitro oocyte assay as the ability to inhibit the FF-Mas or 22S-hydroxy-FF-Mas induced maturation, in hypoxanthine media, in denuded oocytes (DO) or cumulus enclosed oocytes (CEO), respectively. The compounds can be used to inhibit meiosis in both male and female and thus can be used as contraceptive agents.
(§2) Natural resumption of meiosis can be mimicked in vitro by addition of FF-Mas or other agonists to the culture medium containing hypoxanthine. The antagonistic activity of the compounds is measured as the ability to inhibit the FF-Mas or 22S-hydroxy-FF-Mas induced oocyte maturation in denuded oocytes or cumulus enclosed oocytes, respectively, in vitro.
(§3) Ovaries are obtained from immature female mice (B6D2-F1, strain C57BL×DBA). At the age of 19, 20 or 21 days the mice are injected subcutaneously with a single dose of 20 IU follicle stimulating hormone (Humegon, Organon, The Netherlands) in saline.
Forty-eight hours after follicle stimulating hormone injection mice are killed by cervical dislocation. The ovaries are removed, freed of extraneous tissue and placed in a multidish containing 0.5 ml preparation medium at 37° C. L-15 Leibovitz medium (Gibco, pH 7.3±0.1) supplemented with bovine serum albumin (3 mg.ml^−1), L-glutamine (0.23 mM), sodium pyruvate (2 mM) and hypoxanthine (4 mM) is used as preparation medium. […]
(§4) The oocyte assay is performed in 3 blocks, each block represents the ovaries of one mouse (randomized block design). […] At t=0 the number of oocytes with intact germinal vesicles (GV) or germinal vesicle break-down (GVBD) is counted under an inverted microscope with differential interference contrast equipment. […] At the end of the culture period the number of oocytes with GV or GVBD per group is counted. For statistical analysis the percentage germinal vesicle breakdown is calculated for each group in one block. […]

[2] = system: cumulus enclosed oocytes (CEO); assay: Oocyte assay, antagonistic testing, CEO assay (inhibition of 22S-hydroxy-FF-Mas induced oocyte maturation); conditions: 22S-hydroxy-FF-Mas 5 μM, hypoxanthine 4 mM medium, 22 hours culture, number in brackets = control (22S-hydroxy-FF-Mas alone)
Protocol: as §1, §2, §3
Forty-eight hours after follicle stimulating hormone injection mice are killed by cervical dislocation. The ovaries are removed, freed of extraneous tissue and placed in a multidish containing 0.5 ml preparation medium at 37° C. […]
as §4, with “block. These percentages are subjected to arcsin transformation, and differences between control and test compounds are analyzed by an ANOVA test for a randomized block design.” for “block.”

[3] = system: denuded oocytes (DO); assay: Oocyte assay, agonistic testing, DO assay (overcoming hypoxanthine maintained meiotic arrest); conditions: hypoxanthine 4 mM medium, 22 hours culture, number in brackets = control
Source text: Oocytes arrested in meiosis contain diffused chromosomes which are surrounded by an intact nuclear envelope known as the germinal vesicle (GV). Upon reinitiation of meiosis by the midcycle gonadotropin surge, the chromosomes recondense and the GV breaks down (GVBD). In vivo, the oocyte is exposed to hypoxanthine (HX), which maintains the oocyte arrested in the meiotic prophase. This meiotic arrest can be mimicked in vitro by addition of hypoxanthine to the culture medium. The agonistic activity of meiosis activating substances is measured as the ability to overcome the hypoxanthine maintained meiotic arrest in denuded oocytes (DO) or cumulus enclosed oocytes (CEO), i.e. as the ability to induce meiotic resumption in vitro.
as §3
Forty-eight hours after follicle stimulating hormone injection mice are killed by cervical dislocation. The ovaries are removed, freed of extraneous tissue and placed in a multidish containing 0.5 ml preparation medium at 37° C. L-15 Leibovitz medium (Gibco, pH 7.3±0.1) supplemented with bovine serum albumin (3 mg.ml^−1), L-glutamine (0.23 mM), sodium pyruvate (2 mM) and hypoxanthine (4 mM) is used as preparation medium. The antral follicles of the ovaries are punctured under a dissecting microscope using two 27-gauge needles attached to two 1 ml syringes. Cumulus enclosed oocytes (CEO) of uniform size are selected with a mouth-controlled pipette and rinsed in 0,5 ml fresh preparation medium. About 20 CEO are obtained from one ovary.
Oocytes freed from cumulus cells, i.e. denuded oocytes (DO), are obtained by gently flushing CEO through a fine-bore mouth-controlled pipette. DO were collected in fresh MEM alpha medium, containing bovine serum albumin (3 mg.ml^−1), L-glutamine (0.23 mM), sodium pyruvate (2 mM) and hypoxanthine (4 mM), and washed twice before transfer to the test medium.
as §4, with “block. These percentages are subjected to arcsin transformation, and differences between control and test compounds are analyzed by an ANOVA test for a randomized block design.” for “block.”

Compound	% GVBD DO assay exp.(control) [1]	% GVBD CEO assay exp.(control) ([2]; compound 2.5 μM)	% GVBD DO assay exp.(control) ([3]; compound 5 μM)	% GVBD CEO assay exp.(control) ([2]; compound 1.0 μM)	% GVBD DO assay exp.(control) ([3]; compound 10 μM)
CC(C)CC[C@@H](O)[C@@H](C)[C@H]1CC[C@H]2[C@@H]3CC=C4C[C@@H](O)CC[C@]4(C)[C@H]3CC[C@]12C [22R-hydroxycholesterol, (3β,20S,22R)-cholest-5-en-3-ol, reference compound]	38(89) %	52(89)^4%	–	–	–
CC(C)=CC[C@H](O)[C@@H](C)[C@H]1CC=C2C3=C(CC[C@@]21C)[C@@]1(C)CC[C@H](O)C(C)(C)[C@@H]1CC3 [22S-hydroxy-FF-Mas, (3β,5α,20S,22S)-4,4-dimethylcholesta-8,14,24-triene-3,22-diol, reference compound]	–	–	97(2) %	–	–
C=C(C)C[S@+]([O-])C[C@@H](C)[C@H]1CC[C@H]2[C@@H]3CC=C4C(C)(C)[C@@H](O)CC[C@]4(C)[C@H]3CC[C@]12C [Example 1a, [3β,20S,(21R)]-4,4,20-Trimethyl-21-[(2-methyl-2-propenyl)sulfinyl]pregn-5-en-3-ol]	14(84) %	–	3(12) %	9(96)^3%	–
C[C@H](C[S@@+]([O-])c1ccccc1)[C@H]1CC[C@H]2[C@@H]3CC=C4C(C)(C)[C@@H](O)CC[C@]4(C)[C@H]3CC[C@]12C [Example 3a, [3β,20S,(21R)]-4,4,20-Trimethyl-21-(phenylsulfinyl)pregn-5-en-3-ol]	4(84) %	–	4(12) %	34(96)^3%	–
CC(C)=CCC[C@@H](C)[C@H]1CC=C2C3=C(CC[C@@]21C)[C@@]1(C)CC[C@H](O)C(C)(C)[C@@H]1CC3 [FF-Mas, (3β,5α,20R)-4,4-dimethylcholesta-8,14,24-trien-3-ol, reference compound]	–	–	–	–	84(7) %
